Values quoted from earlier work in patent US20200246411A1, “ANTI-DIARRHOEAL HERBAL COMPOSITIONS” (SRH NUTRITION LLP, priority 2017, published 2020).

Settings: conventional drug use

| SMILES | disadvantages / adverse reactions |
| --- | --- |
| [Bi] [Bismuth] | Causes adverse reactions (dizziness, cephalea, constipation, dark stools, |
| COc1ccc2c3c1O[C@H]1[C@@H](O)C=C[C@H]4[C@@H](C2)N(C)CC[C@@]341 [Codeine] | Produces secondary effects such as nausea, dizziness and acts against |
| CCOC(=O)C1(c2ccccc2)CCN(CCC(C#N)(c2ccccc2)c2ccccc2)CC1 [Diphenoxylate] | Therapeutic doses induce adverse reactions in the CNS (confusion, |
| CN(C)C(=O)C(CCN1CCC(O)(c2ccc(Cl)cc2)CC1)(c1ccccc1)c1ccccc1 [Loperamide] | Frequent adverse reactions induced are hypersensibility reactions |
| CC(=O)SCC(Cc1ccccc1)C(=O)NCC(=O)OCc1ccccc1 (centres unmarked) [Racecadotril] | Cause some adverse reactions such as hypokalemia, bronchospasm, |
